In publication PMC6433232, “Targeting mitochondria in cancer therapy could provide a basis for the selective anti-cancer activity” (PLoS ONE, 2019):
Where “and” joins values, the source holds several entries; their conditions need not be identical. Identical values can stand only once. Like-named read-outs stand apart in the source and are kept apart here.

Key:
[1] = test system: primary acute myeloid leukemia (AML) cells obtained from patients; experiment: Kinase inhibitor library screening with and without NSC130362, primary AML cells; assay type: cell-based, Human
[2] = test system: human primary hepatocytes; experiment: cells; conditions: Hepatocyte, read-out: EC50, μM Hepatocytes
From the text: We selected hepatocytes as normal cells because hepatocytes are mediate toxicity to multiple drugs and are used as a standard to assess toxicity of drugs in vitro [28]. […] For comparison with the standard of care, doxorubicin was also included in this analysis.

[3] = test system: pancreatic cancer MIA PaCa-2 cells; experiment: cells; conditions: for EC50: Homo sapiens, MIA PaCa-2, read-out: EC50, μM MIA PaCa-2
Protocol: Fig 1 A, Structure of NSC130362. B, Dose response curve of NSC130362 in MIA PaCa-2 cells. Cells were pre-incubated with NSC130362 for 2 h followed by addition of ATO (5 μM) and incubation for an additional 24 h. At the end of the treatment, the ratio of dead cells was determined by a CellTiterGlo reagent.

[4] = ratio of EC50 for inhibitor to EC50 for inhibitor/NSC130362 combination, NSC130362 10 μM, Screen N 1
[5] = ratio of EC50 for inhibitor to EC50 for inhibitor/NSC130362 combination, NSC130362 10 μM, Screen N 2
[6] = ratio of EC50 for inhibitor to EC50 for inhibitor/NSC130362 combination, NSC130362 10 μM, Screen N 3

Row | EC50 decrease, fold (Screen N 1) [1, 4] | EC50 decrease, fold (Screen N 2) [1, 5] | EC50 decrease, fold (Screen N 3) [1, 6] | Compound | further results
1 | 1.1 fold | 1.0 fold | 0.226 fold | Cc1[nH]c(/C=C2\C(=O)Nc3ccc(S(=O)(=O)Cc4c(Cl)cccc4Cl)cc32)c(C)c1C(=O)N1CCC[C@@H]1CN1CCCC1 [PHA-665752] | –
2 | 1.0 fold | 1.0 fold | 1.0 fold | CCCCCCCCCCCCc1ccc(S(=O)(=O)Nc2nncs2)cc1 [PHT-427] | –
3 | 8.1 fold | 1.0 fold | 265.0 fold | NC(=O)c1cnc(N[C@@H]2CCCC[C@@H]2N)nc1Nc1cccc(-n2nccn2)c1 [PRT062607] | –
4 | 1.0 fold | 1.0 fold | 1058.2 fold | NC(=O)c1ccc(-c2nc(-c3ccc4c(c3)OCO4)c(-c3ccccn3)[nH]2)cc1 [SB-431542] | –
5 | – | 0.8 fold | – | O=C(Nc1ccc2[nH]nc(-c3ccncc3)c2c1)[C@@H]1CCN(CC(=O)N2CCN(c3ccc(-c4ncccn4)cc3)CC2)C1 [SCH-772984] | –
6 | 1.6 fold | 1.0 fold | 66.4 fold | Cn1cc(-c2ccc3nnc(Sc4ccc5ncccc5c4)n3n2)cn1 [SGX-523] | –
7 | – | – | 82.4 fold | CCCCCNC(=O)N1CCC(CN(Cc2ccc(Cl)cc2)Cc2ccc([N+](=O)[O-])s2)C1 (stereo not shown) [SR9011] | –
8 | 1.4 fold | 1.0 fold | 0.000816 fold | O=C(O)c1ccc2c3c1cccc3c(=O)n1c3ccccc3nc21 [STO609] | –
9 | 11.9 fold | 1.0 fold | 0.000745 fold | Cc1[nH]c(/C=C2\C(=O)Nc3ccc(S(=O)(=O)N(C)c4cccc(Cl)c4)cc32)c(C)c1C(=O)N1CCN(C)CC1 [SU11274] | –
10 | 2.9 fold | 1.0 fold | 0.0543 fold | O=c1ncn2nc(Sc3ccc(F)cc3F)ccc2c1-c1c(Cl)cccc1Cl [VX-745] | –
11 | 6.5 fold | 1.0 fold | 1.0 fold | Oc1nc(-c2ccc(C(F)(F)F)cc2)nc2c1CSCC2 [XAV-939] | –
12 | 10.9 fold | 4.4 fold | 1.0 fold | COCCn1c2c([n+](Cc3cnccn3)c1C)C(=O)c1ccccc1C2=O [YM-155] | –

The next lines start with the compound.

Row | Compound | EC50 decrease, fold (Screen N 1) [1, 4] | EC50 decrease, fold (Screen N 2) [1, 5] | EC50 decrease, fold (Screen N 3) [1, 6] | further results
13 | Oc1cccc(-c2nc(N3CCOCC3)c3oc4ncccc4c3n2)c1 [PI-103] | 0.452 fold | 2.6 fold | 1089.9 fold | –
14 | CC(=O)c1c(C)c2cnc(Nc3ccc(N4CCNCC4)cn3)nc2n(C2CCCC2)c1=O [Palbociclib] | 1.6 fold | 1.0 fold | 1.8 fold | –
15 | Cc1[nH]c2ccccc2c1CCNCc1ccc(/C=C/C(=O)NO)cc1 [Panobinostat] | 9.3 fold | 1.2 fold | 0.0014 fold | –
16 | Cc1ccc(Nc2nccc(N(C)c3ccc4c(C)n(C)nc4c3)n2)cc1S(N)(=O)=O [Pazopanib (GW786034)] | 1.0 fold | 1.0 fold | 193.3 fold and 170.6 fold | –
17 | CCOc1cc2ncc(C#N)c(Nc3ccc(F)c(Cl)c3)c2cc1NC(=O)/C=C/CN(C)C [Pelitinib (EKB-569)] | 1.4 fold | 0.843 fold | 46.0 fold | –
18 | Cc1ccc(C(=O)Nc2ccc(CN3CCN(C)CC3)c(C(F)(F)F)c2)cc1C#Cc1cnc2cccnn12 [Ponatinib (AP24534)] | – | – | – | EC50 decrease, fold (Screen N 2) [1]: 0.9 fold and 1.1 fold
19 | CC(C)(C)c1cc(NC(=O)Nc2ccc(-c3cn4c(n3)sc3cc(OCCN5CCOCC5)ccc34)cc2)no1 [Quizartinib (AC220)] | – | 1.0 fold | – | –
20 | Cn1c(Nc2ccc(C(F)(F)F)cc2)nc2cc(Oc3ccnc(-c4ncc(C(F)(F)F)[nH]4)c3)ccc21 [RAF265 (CHIR-265)] | 2.6 fold | 0.8 fold | 0.0556 fold | –
21 | CO[C@H]1C[C@@H]2CC[C@@H](C)[C@@](O)(O2)C(=O)C(=O)N2CCCC[C@H]2C(=O)O[C@H]([C@H](C)C[C@@H]2CC[C@@H](O)[C@H](OC)C2)CC(=O)[C@H](C)/C=C(\C)[C@@H](O)[C@@H](OC)C(=O)[C@H](C)C[C@H](C)/C=C/C=C/C=C/1C [Rapamycin] | – | 1.0 fold | – | –
22 | CNC(=O)c1cc(Oc2ccc(NC(=O)Nc3ccc(Cl)c(C(F)(F)F)c3)c(F)c2)ccn1 [Regorafenib (BAY 73-4506)] | 1.0 fold | 1.2 fold | 0.0284 fold | –
23 | N#CC[C@H](C1CCCC1)n1cc(-c2ncnc3[nH]ccc23)cn1 [Ruxolitinib (INCB018424)] | – | 1.0 fold | – | –
24 | CC(C)(C)c1cnc(CSc2cnc(NC(=O)C3CCNCC3)s2)o1 [SNS-032 (BMS-387032)] | 6.0 fold | 0.9 fold | 14.0 fold | –
25 | Cn1cnc2c(F)c(Nc3ccc(Br)cc3Cl)c(C(=O)NOCCO)cc21 [Selumetinib (AZD6244)] | 6.5 fold | 1.5 fold | 1.0 fold | –
26 | CCN(CC)CCNC(=O)c1c(C)[nH]c(/C=C2\C(=O)Nc3ccc(F)cc32)c1C [Sunitinib] | – | 1.0 fold | – | –
27 | Nc1nc(N)c2nc(-c3cccc(O)c3)c(-c3cccc(O)c3)nc2n1 [TG100-115] | 1.8 fold | 1.0 fold | 1.0 fold | –
28 | Cc1nc(-c2cn3c(n2)-c2ccc(-c4cnn(C(C)(C)C(N)=O)c4)cc2OCC3)n(C(C)C)n1 [Taselisib (GDC-0032)] | – | 2.8 fold | – | –
29 | COc1cc2nccc(Oc3ccc(NC(=O)Nc4cc(C)on4)c(Cl)c3)c2cc1OC [Tivozanib (AV-951)] | 15.6 fold | 1.0 fold | 89.9 fold | –

Row | Compound | EC50 decrease, fold (Screen N 1) [1, 4] | EC50 decrease, fold (Screen N 2) [1, 5] | EC50 decrease, fold (Screen N 3) [1, 6] | further results
30 | Cc1cc(Nc2cc(N3CCN(C)CC3)nc(Sc3ccc(NC(=O)C4CC4)cc3)n2)n[nH]1 [Tozasertib (VX-680)] | 7.5 fold | 1.0 fold | 0.9 fold | –
31 | CC(=O)Nc1cccc(-n2c(=O)n(C3CC3)c(=O)c3c(Nc4ccc(I)cc4F)n(C)c(=O)c(C)c32)c1 [Trametinib (GSK1120212)] | 1.4 fold | 398.5 fold | 183.2 fold | –
32 | CCCCNc1ncc2c(-c3ccc(CN4CCN(C)CC4)cc3)cn(C3CCC(O)CC3)c2n1 (stereo not shown) [UNC 2025A] | – | 1.0 fold | – | –
33 | COc1cc2/c(=N/c3ccc(Br)cc3F)nc[nH]c2cc1OCC1CCN(C)CC1 [Vandetanib (ZD6474)] | 0.5 fold | 1.0 fold | – | –
34 | CCS(=O)(=O)O.COC(=O)c1ccc2c(c1)NC(=O)/C2=C(\Nc1ccc(N(C)C(=O)CN2CCN(C)CC2)cc1)c1ccccc1 [Vargetef] | 0.229 fold | 1.0 fold | 0.14 fold | –
35 | Clc1ccc(Nc2nnc(Cc3ccncc3)c3ccccc23)cc1 [Vatalanib (PTK787)] | 0.245 fold | 1.0 fold | 0.7 fold | –
36 | CC(C)C[C@H](NC(=O)[C@H](Cc1ccccc1)NC(=O)c1cnccn1)B(O)O [Velcade] | – | – | – | EC50 decrease, fold (Screen N 1) [1]: 0.457 fold; EC50 decrease, fold (Screen N 2) [1]: 0.468 fold; EC50 decrease, fold (Screen N 3) [1]: 0.0645 fold
37 | CCCS(=O)(=O)Nc1ccc(F)c(C(=O)c2c[nH]c3ncc(-c4ccc(Cl)cc4)cc23)c1F [Vemurafenib (PLX-4032)] | 1.0 fold | 1.0 fold | – | –
38 | CS(=O)(=O)c1ccc(C(=O)Nc2ccc(Cl)c(-c3ccccn3)c2)c(Cl)c1 [Vismodegib (GDC-0449)] | 1.0 fold | 1.0 fold | 1.0 fold | –
39 | CC[C@@H]1C(=O)N(C)c2cnc(Nc3ccc(C(=O)N[C@H]4CC[C@H](N5CCN(CC6CC6)CC5)CC4)cc3OC)nc2N1C(C)C [Volasertib (BI-6727)] | 0.2 fold | 0.4 fold | 68.5 fold | –
40 | CNC1=C(Cl)C(=O)c2ccccc2C1=O [compound 2] | – | – | – | EC50 [2]: 41.1 µM; EC50 [3]: 38.6 µM
41 | CCCNC1=C(Cl)C(=O)c2ccccc2C1=O [compound 4] | – | – | – | EC50 [2]: 90 µM; EC50 [3]: 90 µM; reduction of anti-cancer activity ([3]; versus compound 3): more than 3 fold
42 | CCCCNC1=C(Cl)C(=O)c2ccccc2C1=O [compound 5] | – | – | – | EC50 [2]: > 90 µM; EC50 [3]: > 90 µM
43 | CCCCCNC1=C(Cl)C(=O)c2ccccc2C1=O [compound 6] | – | – | – | EC50 [2]: > 90 µM; EC50 [3]: > 90 µM
44 | JAK Inhibitor I | 0.847 fold | 1.0 fold | 46.2 fold | –
45 | NF-kB Activation Inhibitor | 11.2 fold | 1.0 fold | 0.0602 fold | –
